Measured values taken from publication PMC4558462, “A new small molecule inhibitor of soluble guanylate cyclase” (Bioorganic & Medicinal Chemistry, 2015).

Each molecule was assayed against T1, sGC (Homo sapiens, UniProt Q02108+Q02153) (assay: Earlier laboratory observation of effect on sGC (data not shown)). Conditions: low millimolar concentrations.
T1 sequence (Q02108 1-690): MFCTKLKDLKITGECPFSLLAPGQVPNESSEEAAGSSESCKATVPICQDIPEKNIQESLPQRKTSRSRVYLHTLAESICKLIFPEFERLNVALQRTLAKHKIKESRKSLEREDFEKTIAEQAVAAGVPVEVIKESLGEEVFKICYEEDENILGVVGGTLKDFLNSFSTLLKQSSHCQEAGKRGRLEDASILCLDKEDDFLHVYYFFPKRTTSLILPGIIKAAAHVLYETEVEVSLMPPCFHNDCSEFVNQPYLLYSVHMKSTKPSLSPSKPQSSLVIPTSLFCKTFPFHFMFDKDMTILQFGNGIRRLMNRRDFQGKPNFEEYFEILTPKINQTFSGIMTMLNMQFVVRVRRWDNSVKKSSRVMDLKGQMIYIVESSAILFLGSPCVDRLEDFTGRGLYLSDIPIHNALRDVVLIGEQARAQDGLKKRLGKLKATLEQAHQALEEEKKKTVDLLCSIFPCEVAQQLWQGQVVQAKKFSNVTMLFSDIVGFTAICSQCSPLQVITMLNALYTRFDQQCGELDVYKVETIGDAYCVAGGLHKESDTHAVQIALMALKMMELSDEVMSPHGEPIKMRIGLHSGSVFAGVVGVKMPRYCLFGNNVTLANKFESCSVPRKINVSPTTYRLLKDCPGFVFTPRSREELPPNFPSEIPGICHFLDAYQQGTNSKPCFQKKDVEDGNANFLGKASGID
T1 sequence (Q02153 1-619): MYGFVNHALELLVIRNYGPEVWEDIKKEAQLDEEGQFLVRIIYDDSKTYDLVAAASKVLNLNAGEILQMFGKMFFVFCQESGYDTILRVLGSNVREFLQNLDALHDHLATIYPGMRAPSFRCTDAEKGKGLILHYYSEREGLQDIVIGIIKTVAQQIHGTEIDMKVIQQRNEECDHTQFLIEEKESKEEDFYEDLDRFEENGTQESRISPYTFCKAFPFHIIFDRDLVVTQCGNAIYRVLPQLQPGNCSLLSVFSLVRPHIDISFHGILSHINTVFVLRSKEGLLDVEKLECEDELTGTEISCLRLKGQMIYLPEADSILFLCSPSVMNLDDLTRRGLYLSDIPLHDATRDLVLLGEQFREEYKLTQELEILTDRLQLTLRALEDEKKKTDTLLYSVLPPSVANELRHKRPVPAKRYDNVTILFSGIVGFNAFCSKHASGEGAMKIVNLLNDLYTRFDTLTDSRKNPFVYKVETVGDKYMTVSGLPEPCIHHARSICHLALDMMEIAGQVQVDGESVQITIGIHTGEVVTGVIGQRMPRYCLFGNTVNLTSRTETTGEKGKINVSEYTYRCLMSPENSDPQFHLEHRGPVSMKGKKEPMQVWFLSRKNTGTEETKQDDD
Format: biochemical
Protocol: In the course of studies in our laboratory we observed activation of sGC with the anti-epileptic drug lamotrigine 2 and inhibition with lamotrigine analogues sipatrigine 3 and 4, all at low millimolar concentrations (data not shown) (Fig. 1). These compounds were used as the starting point for a screening study to find new inhibitors of sGC. The strategy was to conduct several rounds of similarity searching and screening to identify the best inhibitors. Some synthetic studies were conducted on the best hit to explore the structure–activity relationships.
For Nc1nnc(-c2cccc(Cl)c2Cl)c(N)n1 [Compound 2, lamotrigine], the “effect on sGC” value was “activation”. With CN1CCN(c2ncc(-c3cc(Cl)cc(Cl)c3Cl)c(N)n2)CC1 [Compound 3, sipatrigine] the “effect on sGC” value was “inhibition”. In the case of Nc1nc(N)c(-c2cc(Cl)cc(Cl)c2Cl)c(C(F)(F)F)n1 [Compound 4], the “effect on sGC” value is reported as “inhibition”.
